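Step 1: Grow cells in 96-well plates. Step 2: Expose to compound for 48 hours at 5 concentrations. Step 3: Interpolate endpoints linearly; if unreached, use highest concentration. GI50 = concentration required for 50% inhibition of growth.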 Calls of active or inactive are those of the source. Cut-off read from the data, not from the text of the source: active = GI50 up to about 1.1 µM and inactive = higher.
Columns and labels:
Test in all cases: inhibition of tumour cell growth, NCI panel, 48 h
[1] = test system: LOX IMVI
[2] = test system: EKVX
[3] = test system: RXF 393
[4] = test system: MCF7
[5] = test system: COLO 205
[6] = test system: CAKI-1
[7] = test system: SF-268
[8] = test system: SK-MEL-5
[9] = test system: A498
[10] = test system: U-251
[11] = test system: SK-MEL-2
[12] = test system: UO-31
[13] = test system: Hs-578T
[14] = test system: OVCAR-4
[15] = test system: UACC-62
[16] = test system: MDA-MB-231
[17] = test system: HCT-15
[18] = test system: Malme-3M
[19] = test system: SR
[20] = test system: RPMI-8226

Row | SMILES | GI50 [1] | GI50 [2] | GI50 [3] | GI50 [4] | GI50 [5] | GI50 [6] | GI50 [7] | GI50 [8] | GI50 [9] | GI50 [10] | GI50 [11] | GI50 [12] | GI50 [13] | GI50 [14] | GI50 [15] | GI50 [16] | GI50 [17] | GI50 [18] | GI50 [19] | GI50 [20]
1 | O=C(N[C@@H](c1ccccc1)[C@@H](O)C(=O)OCc1ccc([N+](=O)[O-])cc1)c1ccccc1 | > 100 µM (inactive) | > 100 µM (inactive) | > 100 µM (inactive) | 84.5 µM (inactive) | > 100 µM (inactive) | > 100 µM (inactive) | > 100 µM (inactive) | 75.9 µM (inactive) | > 100 µM (inactive) | > 100 µM (inactive) | > 100 µM (inactive) | 65.5 µM (inactive) | > 100 µM (inactive) | > 100 µM (inactive) | > 100 µM (inactive) | > 100 µM (inactive) | > 100 µM | > 100 µM (inactive) | – | –
2 | COc1cc(C2SCC(=O)N2c2ccc(Oc3ccc(Cl)cc3)c(Cl)c2)cc(OC)c1OC (stereo unspecified) | 17.9 µM (inactive) | 23.6 µM (inactive) | – | 36.3 µM (inactive) | 19.7 µM (inactive) | 16.9 µM (inactive) | 17.2 µM (inactive) | 17.9 µM (inactive) | – | 39.5 µM (inactive) | 17.1 µM (inactive) | 17.6 µM (inactive) | 22.2 µM (inactive) | 42.7 µM (inactive) | 16 µM (inactive) | 18.7 µM (inactive) | 26.2 µM | 19.8 µM (inactive) | 22 µM (inactive) | 29.4 µM (inactive)
3 | CCCCOC(=O)C1CN2C(=NC1(C(F)(F)F)C(F)(F)F)Sc1ccccc12 (stereo unspecified) | 43.5 µM (inactive) | 37.2 µM (inactive) | 24.1 µM (inactive) | 32.1 µM (inactive) | 31.8 µM (inactive) | > 100 µM (inactive) | 33.8 µM (inactive) | 20 µM (inactive) | > 100 µM (inactive) | 41.4 µM (inactive) | 34.8 µM (inactive) | 19.2 µM (inactive) | 30.6 µM (inactive) | 45.5 µM (inactive) | 47.1 µM (inactive) | > 100 µM (inactive) | 45.6 µM | 53.1 µM (inactive) | – | 26.1 µM (inactive)
4 | COc1cc2oc(-c3ccc4c(c3)OCO4)c(OC)c(=O)c2c(OC)c1O | 32.7 µM (inactive) | 37.6 µM (inactive) | > 100 µM (inactive) | 69.7 µM (inactive) | > 100 µM (inactive) | > 100 µM (inactive) | 27.9 µM (inactive) | 25.4 µM (inactive) | 45.4 µM (inactive) | 38.4 µM (inactive) | – | 53 µM (inactive) | 61 µM (inactive) | 59.3 µM (inactive) | 54.3 µM (inactive) | 51.6 µM (inactive) | 78.7 µM | > 100 µM (inactive) | – | –
5 | Clc1ccc(C2ON=C(c3ccccc3)N2C23CC4CC(CC(C4)C2)C3)cc1Cl (stereo unspecified) | > 10 µM (inactive) | > 10 µM (inactive) | > 10 µM (inactive) | > 10 µM (inactive) | > 10 µM (inactive) | > 10 µM (inactive) | > 10 µM (inactive) | > 10 µM (inactive) | > 10 µM (inactive) | > 10 µM (inactive) | > 10 µM (inactive) | > 10 µM (inactive) | > 10 µM (inactive) | > 10 µM (inactive) | > 10 µM (inactive) | > 10 µM (inactive) | > 10 µM | > 10 µM (inactive) | – | > 10 µM (inactive)
6 | Cc1cc([N+](=O)[O-])c(C)c(Br)c1C | – | 70.8 µM (inactive) | 60.5 µM (inactive) | > 100 µM (inactive) | > 100 µM (inactive) | > 100 µM (inactive) | > 100 µM (inactive) | > 100 µM (inactive) | > 100 µM (inactive) | > 100 µM (inactive) | > 100 µM (inactive) | > 100 µM (inactive) | 42.8 µM (inactive) | > 100 µM (inactive) | > 100 µM (inactive) | > 100 µM (inactive) | > 100 µM | > 100 µM (inactive) | – | > 100 µM (inactive)
7 | NC(=O)c1cc2ccccc2o/c1=N/O | > 100 µM (inactive) | 32.2 µM (inactive) | > 100 µM (inactive) | 29.2 µM (inactive) | > 100 µM (inactive) | 27.9 µM (inactive) | > 100 µM (inactive) | > 100 µM (inactive) | – | > 100 µM (inactive) | > 100 µM (inactive) | 38.7 µM (inactive) | 26.2 µM (inactive) | – | 35.8 µM (inactive) | > 100 µM (inactive) | > 100 µM | – | > 100 µM (inactive) | > 100 µM (inactive)

From ChEMBL document CHEMBL1201862, “PubChem BioAssay data set” (2004)
